From US9394285B2 (Pfizer Inc., priority 2013, dated 2016)

Target: human AMPK (full-length γ1, β1 and α1 subunits) (Homo sapiens (Human), UniProt Q13131+Q9Y478)
Assay: AMPK in vitro biochemical assay (33P-based, SAMS peptide, PP2A dephosphorylation)
Details: for EC50: activation of phosphorylated AMPK, 33P-ATP, SAMS peptide, PP2A treatment, 4-parameter fit; for Emax: read-out: Maximum
Description: We designed a tricistronic AMPK expression construct that included open reading frames encoding the full-length γ1, β1 and α1 subunits of human AMPK with a ribosome-binding site (RBS) ahead of each coding region and subcloned this into pET-14b expression vector (Novagen, Madison, Wis.) using standard molecular biology techniques. AMPK tricistronic construct was transformed into E. coli BL21-CodonPlus™ (DE3)-RIPL strain (Stratagene) and transformants were selected on LB (Luria-Bertani) agar plates containing ampicillin (100 μg/ml). […] Optical density sample measurements were made on an UltroSpec 2000 spectrophotometer (Pharmacia Biotech) at 600 nm. When the cell density reached ˜0.9 OD, the temperature was reduced to 18° C. and the culture was induced at 18° C. with 0.1 mM Isopropylthiogalactoside (IPTG). […] The cell pellets were aliquoted into four portions, flash frozen in liquid nitrogen and were stored at −80° C. until purification. For purification, frozen cell paste was thawed and resuspended in 50 ml lysis buffer (50 mM Tris, pH 8.0, 150 mM NaCl, 10% glycerol, 2 mM Tris-2-carboxyethyl phosphine (TCEP), 20 mM imidazole and 0.001% Triton X-100). After sonication, insoluble material was removed by centrifugation at 15,000 rpm in a Sorvall® RC5 plus centrifuge for 30 min at 4° C. and the supernatant was loaded onto a 5 ml HisTrap™ HP column (GE Healthcare, Piscataway, N.J.) and washed with five column volumes of lysis buffer. Bound proteins were eluted using an elution buffer containing 300 mM imidazole. Fractions containing AMPK subunits were pooled based on SDS-10% PAGE analysis and dialyzed overnight in dialysis buffer (50 mM Tris, pH 8.0, 150 mM NaCl, 10% glycerol, 2 mM TCEP, and 0.001% Triton X-100). […] The phosphorylated AMPK complex was re-purified on HisTrap™ HP column as before, dialyzed over night in dialysis buffer. The phosphorylated AMPK complex was further purified by gel filtration chromatography with a Superdex 200 HiLoad 16/60 column (GE Healthcare) in SEC buffer (50 mM Tris, pH 8.0, 150 mM NaCl, 10% glycerol, 2 mM TCEP, and 0.001% Triton X-100).
The harvest time (72 hours post infection) was indicated by percent cell viability (to 85-90%) and increased cell diameter (3-4 μm). […] For purification, the cell paste was resuspended in 500 mL lysis buffer (50 mM Tris pH 8.0, 150 mM NaCl, 25 mM imidazole, 10% glycerol, 2 mM MgCl2, 2 mM TCEP+protease inhibitor cocktail. After lysis, cellular debris was removed by centrifugation at 36K×g for 1 hour. The resulting supernatant was filtered at 0.2 micron before applying to a 1 mL nickel charged IMAC column (HisTrap, GE). The bound resin was washed to baseline with 50 CV of 50 mM Tris pH 8.0, 150 mM NaCl, 25 mM imidazole, 10% glycerol, 2 mM MgCl2, 2 mM TCEP before eluting over a 20 CV gradient to 100% with wash buffer containing 500 mM imidazole. Pooled fractions containing PP2A were combined and diluted 10× with 50 mM Tris pH 8.0, 10% glycerol, 1 mM TCEP and applied to a 1 mL AIEX resin (HiTrap QFF, GE). The bound resin was washed with dilution buffer and PP2A was eluted over a 20 CV gradient to 100% 50 mM Tris pH 8.0, 500 mM NaCl, 10% glycerol, 1 mM TCEP and was further diluted 1:1 with 50 mM Tris pH 8.0, 150 mM NaCl, 10% glycerol, and 1 mM TCEP buffer.
The biochemical EC50 (half-maximal concentration required for full activation) of compounds for the activation of AMPK was evaluated by ^33P-based assay using SAMS peptide (commercially available) derived from ACC-1. Twenty μl of phosphorylated AMPK diluted in assay buffer, (50 mM HEPES, 1 mM EGTA, 10 mM MgCl2, 0.25 mM DTT, 0.01% Tween-20, 0.01% BSA (pH 7.5)) was added to 384 well plates containing 1 μL of test compound. Following a fifteen minute room temperature incubation, 10 μL of protein phosphatase PP2A was added to the plate to dephosphorylate pThr172 of AMPK. […] The reaction was terminated after 60 minutes incubation at room temperature by the addition of 15 μL of 2% H3PO4.

[1] = counts as % of positive control wells (enzyme, allosteric activator or AMP, PP2A and substrate)

Sequence of human AMPK (full-length γ1, β1 and α1 subunits) (Q13131 whole entry): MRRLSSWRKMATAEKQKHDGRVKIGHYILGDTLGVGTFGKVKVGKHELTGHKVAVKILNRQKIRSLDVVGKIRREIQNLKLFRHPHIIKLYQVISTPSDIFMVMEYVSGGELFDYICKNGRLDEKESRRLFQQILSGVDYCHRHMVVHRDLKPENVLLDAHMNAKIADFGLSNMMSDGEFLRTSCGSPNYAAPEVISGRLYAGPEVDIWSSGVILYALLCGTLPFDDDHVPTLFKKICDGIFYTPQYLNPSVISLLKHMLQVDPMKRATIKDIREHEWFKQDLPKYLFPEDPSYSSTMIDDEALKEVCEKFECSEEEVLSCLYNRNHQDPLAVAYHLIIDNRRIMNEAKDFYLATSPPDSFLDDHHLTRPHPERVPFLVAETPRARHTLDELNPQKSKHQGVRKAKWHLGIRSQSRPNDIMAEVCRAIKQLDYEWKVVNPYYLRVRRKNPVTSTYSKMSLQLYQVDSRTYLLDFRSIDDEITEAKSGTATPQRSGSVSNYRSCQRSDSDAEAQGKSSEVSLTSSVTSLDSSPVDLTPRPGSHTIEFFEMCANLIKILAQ
Sequence of human AMPK (full-length γ1, β1 and α1 subunits) (Q9Y478 whole entry): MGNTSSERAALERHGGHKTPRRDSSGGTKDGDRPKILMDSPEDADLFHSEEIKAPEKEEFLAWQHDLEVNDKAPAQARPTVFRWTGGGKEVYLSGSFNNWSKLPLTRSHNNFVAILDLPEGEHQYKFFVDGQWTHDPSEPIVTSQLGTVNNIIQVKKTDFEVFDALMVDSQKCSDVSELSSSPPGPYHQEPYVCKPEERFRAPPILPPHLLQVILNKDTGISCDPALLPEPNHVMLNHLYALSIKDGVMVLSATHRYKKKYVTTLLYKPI
Sequence of human AMPK (full-length γ1, β1 and α1 subunits) (P54619 whole entry partner): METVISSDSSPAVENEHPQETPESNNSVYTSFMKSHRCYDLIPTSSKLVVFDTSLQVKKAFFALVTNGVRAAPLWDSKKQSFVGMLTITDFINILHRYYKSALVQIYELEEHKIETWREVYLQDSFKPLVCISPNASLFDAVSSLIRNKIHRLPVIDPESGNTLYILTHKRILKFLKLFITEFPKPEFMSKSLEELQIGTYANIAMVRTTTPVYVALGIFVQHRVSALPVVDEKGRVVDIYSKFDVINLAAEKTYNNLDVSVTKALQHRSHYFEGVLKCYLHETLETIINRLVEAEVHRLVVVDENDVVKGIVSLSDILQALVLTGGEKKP

SMILES | EC50 [nM] | Emax [1] [%] | Maximum [1] [%]
O=C(O)c1c[nH]c2cc(F)c(-c3ccc(C4CCCO4)cc3)c(F)c12 (single isomer, unassigned) [Example 152, 4,6-difluoro-5-[4-(tetrahydrofuran-2-yl)phenyl]-1H-indole-3-carboxylic acid] | 16.7 | – | –
O=C(O)c1c[nH]c2cc(F)c(-c3ccc(C4(O)COC4)cc3)c(F)c12 [Example 20, 4,6-difluoro-5-[4-(3-hydroxyoxetan-3-yl)phenyl]-1H-indole-3-carboxylic acid] | 53.6 | 62 | –
O=C(O)c1c[nH]c2cc(Cl)c(-c3ccc(C4CCCOC4)cc3)cc12 (centres unmarked) [Example 168, 6-chloro-5-[4-(tetrahydro-2H-pyran-3-yl)phenyl]-1H-indole-3-carboxylic acid] | 171 | 109 | –
O=C(O)c1c[nH]c2cc(Cl)c(-c3ccc(OCc4cccnc4)cc3)cc12 [Example 94, 6-chloro-5-[4-(pyridin-3-ylmethoxy)phenyl]-1H-indole-3-carboxylic acid] | 17.9 | 92 | –
O=C(O)c1n[nH]c2cc(Cl)c(-c3ccc(C4(O)CCC4)cc3)cc12 [Example 103, 6-Chloro-5-(4-(1-hydroxycyclobutyl)phenyl)-1H-indazole-3-carboxylic acid] | 8.3 | 80 | –
CS(=O)(=O)N1CCC(c2ccc(-c3cc4c(C(=O)O)c[nH]c4cc3Cl)cc2)C1 (centres unmarked) [Example 16, 6-chloro-5-{4-[1-(methylsulfonyl)pyrrolidin-3-yl]phenyl}-1H-indole-3-carboxylic acid] | 412 | 114 | –
O=C(O)c1c[nH]c2cc(F)c(-c3ccc(C4(CO)CCC4)cc3)cc12 [Example 143, 6-fluoro-5-{4-[1-(hydroxymethyl)cyclobutyl]phenyl}-1H-indole-3-carboxylic acid] | 17.7 | 194 | –
COc1ccc(-c2cc3c(C(=O)O)c[nH]c3cc2Cl)cc1 [Example 33, 6-Chloro-5-(4-methoxy-phenyl)-1H-indole-3-carboxylic acid] | 85.3 | 83 | –
O=C(O)c1c[nH]c2cc(F)c(-c3ccc(C4CCCO4)cc3)cc12 (single isomer, unassigned) [Example 150, 6-fluoro-5-[4-(tetrahydrofuran-2-yl)phenyl]-1H-indole-3-carboxylic acid] | 165 | 112 | –
COc1nc(N2CCC(O)C2)ccc1-c1cc2c(C(=O)O)c[nH]c2cc1Cl (centres unmarked) [Example 161, 6-chloro-5-[6-(3-hydroxypyrrolidin-1-yl)-2-methoxypyridin-3-yl]-1H-indole-3-carboxylic acid] | 8.33 | 92.9 | –
O=C(O)c1c[nH]c2cc(Cl)c(-c3ccc(OCCCN4CC[C@@H](F)C4)cc3)cc12 [Example 189, 6-chloro-5-(4-{3-[(3R)-3-fluoropyrrolidin-1-yl]propoxy}phenyl)-1H-indole-3-carboxylic acid] | 57.7 | 112 | –
COc1nc(N2CCOCC2)ccc1-c1cc2c(C(=O)O)c[nH]c2cc1Cl [Example 174, 6-chloro-5-[2-methoxy-6-(morpholin-4-yl)pyridin-3-yl]-1H-indole-3-carboxylic acid] | 15.3 | 49.4 | –
O=C(O)c1c[nH]c2cc(Cl)c(-c3ccc(OCCO)cc3F)cc12 [Example 86, 6-chloro-5-[2-fluoro-4-(2-hydroxyethoxy)phenyl]-1H-indole-3-carboxylic acid] | 99.2 | 99 | –
O=C(O)c1n[nH]c2cc(Cl)c(-c3ccc(C4CCCCC4)cc3)cc12 [Example 110, 6-Chloro-5-(4-cyclohexylphenyl)-1H-indazole-3-carboxylic acid] | 206 | 90 | –
COc1ccc(-c2cc3c(C(=O)O)c[nH]c3cc2Cl)c(F)c1 [Example 44, 6-chloro-5-(2-fluoro-4-methoxyphenyl)-1H-indole-3-carboxylic acid] | 85 | 78 | –
O=C(O)c1c[nH]c2cc(F)c(-c3ccc(C4(CO)CC4)cc3)c(F)c12 [Example 22, 4,6-difluoro-5-(4-(1-(hydroxymethyl)cyclopropyl)phenyl)-1H-indole-3-carboxylic acid] | 13.7 | 122 | –
O=C(O)c1c[nH]c2cc(Cl)c(-c3ccc4c(c3)OC[C@H](CO)O4)cc12 [Example 144, 6-chloro-5-[(2S)-2-(hydroxymethyl)-2,3-dihydro-1,4-benzodioxin-6-yl]-1H-indole-3-carboxylic acid] | 236 | 119 | –
O=C(O)c1c[nH]c2cc(Cl)c(-c3ccc(C4CCCO4)cc3)cc12 (single isomer, unassigned) [Example 154, 6-chloro-5-[4-(tetrahydrofuran-2-yl)phenyl]-1H-indole-3-carboxylic acid] | 28.3 | – | 104.8
O=C(O)c1c[nH]c2cc(Cl)c(-c3ccc(CC(=O)N4CCOCC4)cc3)cc12 [Example 77, 6-chloro-5-{4-[2-(morpholin-4-yl)-2-oxoethyl]phenyl}-1H-indole-3-carboxylic acid] | 207 | 89 | –
CCOc1ccc(-c2cc3c(C(=O)O)c[nH]c3cc2Cl)cc1 [Example 31, 6-Chloro-5-(4-ethoxyphenyl)-1H-indole-3-carboxylic acid] | 130 | 104 | –
Cc1ccc(-c2cc3c(C(=O)O)c[nH]c3cc2Cl)cc1 [Example 51, 6-chloro-5-(4-methylphenyl)-1H-indole-3-carboxylic acid] | 320 | 93 | –
CC(=O)NCCOc1ccc(-c2cc3c(C(=O)O)c[nH]c3cc2Cl)cc1 [Example 10, 5-{4-[2-(acetylamino)ethoxy]phenyl}-6-chloro-1H-indole-3-carboxylicacid] | 69.9 | 91 | –
O=C(O)c1c[nH]c2cc(Cl)c(-c3ccc4c(c3)OC[C@@H](CO)O4)cc12 [Example 87, 6-chloro-5-[(2R)-2-(hydroxymethyl)-2,3-dihydro-1,4-benzodioxin-6-yl]-1H-indole-3-carboxylic acid] | 69.5 | 112 | –
O=C(O)CCOc1ccc(-c2cc3c(C(=O)O)c[nH]c3cc2Cl)cc1 [Example 90, 5-[4-(2-carboxyethoxy)phenyl]-6-chloro-1H-indole-3-carboxylic acid] | 372 | 120 | –
O=C(O)c1n[nH]c2cc(Cl)c(-c3ccc(-c4ccccc4O)cc3)cc12 [Example 101, 6-Chloro-5-(2′-hydroxy-[1,1′-biphenyl]-4-yl)-1H-indazole-3-carboxylic acid] | 1.8 | 61 | –
CC(O)(c1ccc(-c2cc3c(C(=O)O)n[nH]c3cc2Cl)cc1)C(F)(F)F (centres unmarked) [Example 108, 6-Chloro-5-(4-(1,1,1-trifluoro-2-hydroxypropan-2-yl)phenyl)-1H-indazole-3-carboxylic acid] | 94.4 | 92 | –
O=C(O)c1c[nH]c2cc(Cl)c(-c3ccc(C4CCN4)cc3)cc12 (centres unmarked) [Example 63, 5-(4-azetidin-2-yl-phenyl)-6-chloro-1H-indole-3-carboxylic acid] | 432 | 89 | –
